{"source": "patent US5599789A", "about": "“Method for the treatment of tumours and sarcomas” (Amrad Corporation Limited, priority 1991, dated 1997)", "key": {"[1]": {"test": "Toxicity of hLIF in mice, daily subcutaneous injections", "format": "in vivo", "procedure": "A number of preliminary experiments were performed to determine the appropriate daily dose of hLIF in mice. Mice were injected with high doses of hLIF (100 microgram per mouse). These studies led to death of the mice within 2 weeks of daily subcutaneous injections of LIF. Studies using lower doses (5-20 micrograms per mouse) of hLIF, led to survival of most of the mice for over 20 days. Retro-orbital bleeds were performed on the first 3 days to determine platelet counts. In all mice subcutaneously injected daily with 1 microgram or more of hLIF, the platelet count rose in the first 3 days (26-60% increment on baseline pretreatment levels). In this study an amount of 20 μg of hLIF was chosen to be subcutaneously injected daily into SCID mice bearing Ewing's Sarcoma tumours."}, "[2]": {"system": "Ewing's Sarcoma cell line Cu-1", "test": "Colony formation in semi-solid agar cultures, Cu-1 cells", "format": "cell-based, human", "conditions": "Cu-1, 10,000 cells, day 18", "procedure": "(§1) Tumour cells obtained from biopsy and bone marrow specimens from patients with Ewing's Sarcoma were used in these studies. Approval for this project has been obtained from the Ethics Committee of the Royal Children's Hospital.\n(§2) Single cell suspensions of tumour cells were obtained by mechanical disruption with an 18G or 21G needle or by pipetting, followed by incubation with dispase II (Boehringer) at a concentration of 1.2 units per ml for 10 minutes at 37° C. Prior to the addition to agar-medium the cells were vortexed gently to prevent clumping.\n(§3) Clonal cell lines were grown in Iscove's Modified Dulbecco's Medium (IMDM) supplemented with 10% v/v foetal calf serum (FCS; CSL Limited, Melbourne, Australia) and were passaged either weekly or twice weekly. The characteristics of the Ewing Sarcoma cell lines used herein as described below:\n(§4) Cell lines derived from the above primary cell lines (Al and Cu) are identified by an Arabic numeral (e.g. Al-1, Al-5, Al-8 or Cu-1).\n(§5) The tumour cells were immobilised in 0.3% w/v agar containing Iscove's Modified Dulbecco's Medium (IMDM) and 10% v/v FCS. […] Cultures were scored for the presence of colonies (>40 cells) or clusters (<40 cells). The number of cells plated per culture ranged from 500 to 10,000 per ml. Colonies were counted on an Olympus dissecting microscope.\n(§6) IL-1, IL-3, IL-4, IL-6, M-CSF, G-CSF, GM-CSF, Stem Cell Factor (SCF), TNFα, TGFα, TGFβ, EGF, aFGF, bFGF, NGF, IGF I, IGF II, PDGF and IFN-γ.\n(§7) The recombinant human leukaemia inhibitory factor (LIF) was obtained from AMRAD Corporation Limited, Melbourne, Australia."}, "[3]": {"system": "Ewing's sarcoma cells from cell line Al-5", "test": "Clonogenicity in agar after LIF pretreatment in suspension culture", "format": "cell-based, human", "procedure": "Ewing's sarcoma cells from cell line Al-5 in suspension cultures were incubated for seven days in the presence or absence of 100 ng/ml LIF prior to inoculation of replicate agar plates with 5×10^3 cells per ml which were then incubated for a further 18 days before colonies were scored. In all cases, the frequency of colonies obtained from LIF-pretreated cells was 35-55% lower compared to control cells."}, "[4]": {"system": "Ewing's Sarcoma cell line Al-5", "test": "Colony formation in semi-solid agar cultures, Al-5 cells", "format": "cell-based, human", "conditions": "Al-5, 1,000 cells, day 18", "procedure": "as §1, §2, §3, §4, §5, §6, §7"}, "[5]": {"conditions": "stimulus 100 ng, mean of duplicate colony counts"}}}
{"substance": "LIF: recombinant human leukaemia inhibitory factor (E. coli derived) from AMRAD Corporation Limited", "values": [{"measurement": "Platelet count rise, increment on baseline pretreatment levels", "setting": "[1]; 1 microgram or more daily subcutaneously, first 3 days", "value": "26-60%"}, {"measurement": "Survival of most of the mice", "setting": "[1]; 5-20 micrograms per mouse", "value": "over 20 days"}, {"measurement": "Time to death of the mice", "setting": "[1]; 100 microgram per mouse, daily subcutaneous injections", "value": "≤ 2", "unit": "weeks"}, {"measurement": "Colonies/Cultures", "setting": "[2]; stimulus 0.01 ng", "value": 542}, {"measurement": "Colonies/Cultures", "setting": "[2]; stimulus 0.1 ng", "value": 430}, {"measurement": "Colonies/Cultures", "setting": "[2]; stimulus 1 ng", "value": 192}, {"measurement": "Colonies/Cultures", "setting": "[2]; stimulus 10 ng", "value": 97}, {"measurement": "Colonies/Cultures", "setting": "[2]; [5]", "value": 125}, {"measurement": "Frequency of colonies from LIF-pretreated cells, lower compared to control cells", "setting": "[3]; Al-5, 100 ng/ml LIF for seven days in suspension, then agar 5×10^3 cells per ml, 18 days, three experiments", "value": "35-55%"}, {"measurement": "Proportion of large colonies in LIF stimulated agar cultures", "setting": "[3]; pretreatment with LIF in suspension cultures for 7-14 days", "value": "further reduced"}, {"measurement": "Colonies/Cultures", "setting": "[4]; stimulus 0.01 ng", "value": 47}, {"measurement": "Colonies/Cultures", "setting": "[4]; stimulus 0.1 ng", "value": 27}, {"measurement": "Colonies/Cultures", "setting": "[4]; stimulus 1 ng", "value": 25}, {"measurement": "Colonies/Cultures", "setting": "[4]; stimulus 10 ng", "value": 18}, {"measurement": "Colonies/Cultures", "setting": "[4]; [5]", "value": 2}]}
